The record followed here is patent US12465614B2, “Budesonide 21-phosphate salts and pharmaceutical compositions containing the same” (GENETIC S.P.A., priority 2020, dated 2025).

What all share (type): in vivo
Experiment [1] has as its system Bradykinin acetate (BK)-induced skin edema in mice. In words: Cutaneous edema: BK-induced plasma extravasation, Evans blue method (Experimental Groups IV). How it is done: Male C57Bl/6 SPF mice (25±2 g, 6-week-old) were purchased from the animal house facilities at the São Paulo School of Medicine (Federal University of São Paulo, Brazil). They were group-housed in a temperature-controlled room at 22° C. with a 12/12-hour light/dark cycle, had free access to food and water and were allowed to acclimate to our local facility for one week before the start of the experimental procedures. The study agrees with the Ethical Principles for Animal Research established by the Brazilian College for Animal Experimentation (COBEA). According to the internal laboratory rules, euthanasia is performed if severe distress related to the test agents developed during the experiment. […] The vehicle for dissolution of the compounds was sterile saline solution (0.9% NaCl) containing 12.5% DMSO (Sigma Chemical Co., St. Louis, MO). The compound solutions were prepared at concentrations such that the administered dose per kg of body weight results from the intraperitoneal (i.p.) administration of 10 ml/kg of each of the solutions. Bradykinin acetate (BK; cat. B3259, Sigma Chemical Co., St. Louis, MO) and compound 48/80 (C48/80; cat. C2313, Sigma Chemical Co., St. […] Skin edema was assessed in mice according to the method previously described by Costa et al. (2006) and Yshii et al (2009). The mice were anesthetized with urethane (25% w/v, 10 ml/kg, i.p.), had their dorsal skin shaved, and thereafter i.p. treated with the vehicle/test compounds. Fifty-five minutes later, a volume of 100 μL of Evans blue dye solution (0.25% in sterile saline) was intravenously (i.v.) injected via the tail vein. Five minutes later, the BK and C48/80 were intradermally (i.d.) injected into the dorsal skin at a fixed volume of 50 μl using a randomized scheme. The same volume of Tyrode solution 50 μl was injected as a control. Thirty minutes later, a 1 ml blood sample was obtained via cardiac puncture and the mice were killed by urethane overdose followed by cervical dislocation. The blood samples were centrifuged at 6,000 g for 4 min to obtain the plasma. The dorsal skin was removed, and the injected sites were punched out using an 8 mm diameter cork borer. […] The dye was extracted from each piece of skin and plasma (100 μl) samples using formamide, and the absorbance of the resulting solutions was measured at 620 nm. The plasma extravasation due to each agent (expressed in μl/site) was calculated as the ratio between the absorbance of each respective skin piece, corrected by the blank value and plasma sample solutions, properly adjusted by the dilution factors. To homogenate data due to the variability of different group of animals (inter-group variations), edema data are expressed as the fold-change response relative to the mean Tyrode (control) response of each experiment.

In experiment [2] the test system is OVA-sensitized mice. In words: Bronchial relaxation to salbutamol, isolated bronchi of OVA-sensitized mice (Experimental Groups I). The conditions noted are these: 1 mg/Kg i.p.; rings precontracted with carbachol; vs OVA group; FIG. 10B.
Experiment [3] concerns mice with OVA-induced allergic asthma. In words: BAL fluid cell counts, Bud vs Bud-21 P (Experimental Groups III). As for the experimental part: Male Balb/c SPF mice (25*2 g, 6-week-old) were purchased from the animal house facilities at the São Paulo School of Medicine (Federal University of São Paulo, Brazil). They were group-housed in a temperature-controlled room at 22° C. with a 12/12-hour light/dark cycle and allowed free access to food and water. The study is in agreement with the Ethical Principles for Animal Research established by the Brazilian College for Animal Experimentation (COBEA). According to the internal laboratory rules, euthanasia is performed if severe distress related to the test agents developed during the experiment.
In Protocol 3, the test compounds budesonide (Bud; MW: 430.53 g/mol) and budesonide 21-phosphate free acid (Bud-21 P; MW: 510.51 g/mol) were administered at equimolar doses of 3, 10 and 30 nmol/animal/day, equivalent to 1.3, 4.3 and 12.9 μg/animal/day of Bud, 1.5, 5.1 and 15.3 μg/animal/day of Bud-21 P, respectively. […]
After Penh evaluation, the mice were anesthetized with inhaled isofluorane (5% v/v in O2) and blood samples were collected from the descending abdominal aorta. […] Total cell counts were determined using a Neubauer chamber, and differential counting was carried out in cytospin (Fanem Mod 2400; São Paulo, Brazil) preparations stained with May-Grünwald dye. […]

The mark [4] stands for this setting: 0.70 μmol/kg i.p. (0.30 mg/kg Bud, 0.36 mg/kg Bud 21-P).
The mark [5] stands for this setting: 2.32 μmol/kg i.p. (1.0 mg/kg Bud, 1.2 mg/kg Bud 21-P), 60 min before i.d. BK, measured 30 min after.

Regarding `CCCC1OC2CC3C4CCC5=CC(=O)C=CC5(C)C4C(O)CC3(C)C2(C(=O)COP(=O)(O)O)O1` (stereo not shown) [B, Budesonide 21-phosphate], the BK-induced plasma extravasation entry in experiment [1] (setting [4]) was “significantly reduced the BK response”; in experiment [1] (setting [5]), “abolished BK-induced response”. Besides, in experiment [2], the “bronchial relaxation to salbutamol” value is recorded as “did not ameliorate the lack of bronchial response to salbutamol”.

As for `CCCC1OC2CC3C4CCC5=CC(=O)C=CC5(C)C4C(O)CC3(C)C2(C(=O)CO)O1` (stereo not drawn) [Bud, 11β,21-dihydroxy-16α,17α-(butylidenebis(oxy))pregna-1,4-diene-3.20-dione], the BK-induced plasma extravasation result in experiment [1] (setting [4]) is recorded as “ineffective”; in experiment [1] (setting [5]) it was “abolished BK-induced response”. In addition, in experiment [3] (3 nmol/animal/day i.n.), the “total BAL leukocytes compared with Sham” value was “still significantly higher than that observed in the Sham mice”. The “BAL macrophages compared with Sham” value in experiment [3] (3 or 10 nmol/animal/day i.n.) is “still significantly higher than those observed in the Sham group”.
